Here are results for twelve molecules from patent US10028966B2 (Avalyn Pharma Inc., priority 2014, dated 2018).

A short description of data set [1]: Pharmacokinetics and tissue distribution (lung, plasma, heart, kidney) of co-solvent formulations, intratracheal bolus aerosol. It is filed as in vivo, Sprague-Dawley rats. The following applies: pirfenidone about 4 mg/kg IT aerosol. As for the experimental part:
Selected formulations were prepared for pharmacokinetic analysis following aerosol delivery to rat lung. […] Formulations prepared for this study are outlined in Table 9. […] The sample was agitated until completely dissolved. […] Filtered samples were analyzed by HPLC.

In the next data set the test system is elastase. The following applies: unprocessed CF sputum directly treated; cited from earlier work.
The conditions of data set [2]: primary metabolite; cited from earlier work.
Another data set deals with cancer patients. As to conditions: cited from earlier work.
The subject of data set [3] is relapsed/refractory multiple myeloma. The following applies: cited from earlier work.
For data set [4], the system named is EGFR mutation positive patients. The following applies: cited from earlier work.
The next data set concerns PI3K. As to conditions: cited from earlier work.
A further data set addresses mTOR (Homo sapiens, UniProt P42345). The following applies: cited from earlier work.
Another data set relates to breast cancer stem cells. The following applies: mice; cited from earlier work.
The next data set concerns p110-γ and p110-δ. As to conditions: inhibits all four isoforms; cited from earlier work.

Take `O=C(O)c1ccc(=O)n(-c2ccccc2)c1`: the “5-carboxy metabolite, lung tissue, Mean” value in data set [1] (0 MIN (one value for all groups)) is recorded as 0.00 μg/gram; in [1] (Group 1, 0.0333 hr), 0.12 μg/gram; in data set [1] (Group 1, 0.0667 hr) it was 0.13 μg/gram; in [1] (Group 1, 0.100 hr), 0.48 μg/gram; in [1] (Group 1, 0.167 hr), 0.49 μg/gram; in data set [1] (Group 1, 0.333 hr), 0.96 μg/gram. The “5-carboxy metabolite, lung tissue, Mean” value in data set [1] (Group 1, 0.667 hr) turned out to be 0.96 μg/gram; in data set [1] (Group 1, 1 hr) it was 0.73 μg/gram; in data set [1] (Group 1, 2 hr), 0.21 μg/gram; in data set [1] (Group 1, 2.50 hr), 0.10 μg/gram; in data set [1] (Group 1, […]), 0.48 μg/gram; in [1] (Group 3, 0.0333 hr), 0.05 μg/gram. Moreover, the “5-carboxy metabolite, lung tissue, Mean” value came out at 0.36 μg/gram in [1] (Group 3, 0.0667 hr); 0.55 μg/gram in data set [1] (Group 3, 0.100 hr); 0.86 μg/gram in data set [1] (Group 3, 0.167 hr); 1.09 μg/gram in [1] (Group 3, 0.333 hr); 0.81 μg/gram in [1] (Group 3, 0.667 hr); 0.70 μg/gram in [1] (Group 3, 1 hr). Moreover, the “5-carboxy metabolite, lung tissue, Mean” value was 0.32 μg/gram in data set [1] (Group 3, 2 hr); 0.14 μg/gram in data set [1] (Group 3, 2.50 hr); 0.52 μg/gram in data set [1] (Group 3, […]); 0.17 μg/gram in data set [1] (Group 5, 0.0333 hr); 0.42 μg/gram in [1] (Group 5, 0.0667 hr); 0.35 μg/gram in data set [1] (Group 5, 0.100 hr). For the same molecule, the “5-carboxy metabolite, lung tissue, Mean” value in data set [1] (Group 5, 0.167 hr) worked out at 0.53 μg/gram; in data set [1] (Group 5, 0.333 hr) it was 1.32 μg/gram; in data set [1] (Group 5, 0.667 hr), 0.96 μg/gram; in [1] (Group 5, 1 hr), 0.75 μg/gram; in [1] (Group 5, 2 hr) it was 0.18 μg/gram; in [1] (Group 5, 2.50 hr), 0.10 μg/gram. Moreover, the “5-carboxy metabolite, lung tissue, Mean” value in data set [1] (Group 5, […]) amounted to 0.45 μg/gram; in data set [1] (Group 6, 0.0333 hr), 0.17 μg/gram; in data set [1] (Group 6, 0.0667 hr), 0.43 μg/gram; in data set [1] (Group 6, 0.100 hr) it was 0.37 μg/gram; in [1] (Group 6, 0.167 hr), 0.64 μg/gram; in data set [1] (Group 6, 0.333 hr), 0.94 μg/gram. Also, the “5-carboxy metabolite, lung tissue, Mean” value in [1] (Group 6, 0.667 hr) is recorded as 0.92 μg/gram; in data set [1] (Group 6, 1 hr), 0.78 μg/gram; in [1] (Group 6, 2 hr), 0.24 μg/gram; in data set [1] (Group 6, 2.50 hr), 0.14 μg/gram; in data set [1] (Group 6, […]), 0.43 μg/gram.

Consider `O=C(O)CCCC[C@@H](S)CCS` (racemic) [DHLA, dihydrolipoic acid], for which the “increase of sol elastase activity” value with elastase is given as “did not increase elastase activity”.

For `O=C(O)c1ccc(=O)n(-c2ccccc2)c1` [5-carboxy-pirfenidone], the “share of urinary excretion” value in [2] is recorded as 95%.

Take `N#CC1(c2ccc(NC(=O)c3cccnc3NCc3ccncc3)cc2)CCCC1` [Apatinib]: in the data set with cancer patients (65 cancer patients, Phase I/II), the complete response was 1.54%, the partial response is on record as 12.31%, the progressive disease is 20% and the stable disease was 66.15%. In the data set with cancer patients (daily for 28 days), the maximum tolerated dose is on record as 850 mg/day.

With `CC(C)C[C@H](NC(=O)[C@H](Cc1ccccc1)NC(=O)c1cnccn1)B(O)O` [Bortezomib], the “patients with peripheral neuropathy” value in data set [3] (human, in vivo) is reported as 30%. Also, the “time to peak concentrations” value in [3] (intravenous administration) is “about 30 minutes”.

Turning to `C#Cc1cccc(Nc2ncnc3cc(OCCOC)c(OCCOC)cc23)c1` [Erlotinib], the response rate result in [4] is listed as “approximately 60%”.

Turning to `CS(=O)(=O)N1CCN(Cc2cc3nc(-c4cccc5[nH]ncc45)nc(N4CCOCC4)c3s2)CC1` [GDC-0941], the IC50 in the data set with PI3K is […].

Consider `Cc1c(CN2CCN(S(C)(=O)=O)CC2)sc2c(N3CCOCC3)nc(-c3cnc(N)nc3)nc12` [GNE-477], for which, on mTOR, the IC50 was 21 nM.

Regarding `CC[C@@H](C(=O)[C@@H](C)[C@@H](O)[C@H](C)[C@@H]1O[C@@H]([C@@H](CC)C(=O)O)CC[C@@H]1C)[C@H]1O[C@]2(C=C[C@@H](O)[C@]3(CC[C@@](C)([C@H]4CC[C@](O)(CC)[C@H](C)O4)O3)O2)[C@H](C)C[C@@H]1C` [Salinomycin], in the data set with breast cancer stem cells, the “killing of breast cancer stem cells, times more effectively than paclitaxel” value is “at least 100 times”.

For `Nc1nc(N)c2nc(-c3cccc(O)c3)c(-c3cccc(O)c3)nc2n1` [TG100-115], in the data set with p110-γ and p110-δ, the “fold better potency against p110-γ and p110-δ” value is given as 5-10 fold.

In the case of DNase, in the data set on elastase, the “increase of sol elastase activity” value is recorded as 190%.

B1: reduced rhTrx: stable reduced form of recombinant human thioredoxin (protein, UniProt P10599 2-105, looked up)
Thioredoxin: VKQIESKTAFQEALDAAGDKLVVVDFSATWCGPCKMIKPFFHSLSEKYSNVIFLEVDVDDCQDVASECEVKCMPTFQFFKKGQKVGEFSGANKEKLEATINELV
modifications: reduced form
Regarding B1, in the data set with elastase, the “increase of sol elastase activity” value is 60%.
